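Protocol summary: plate cells (96-well), add compound at 5 concentrations, incubate 48 h, interpolate endpoints linearly. Abbreviation: GI50, concentration required for 50% inhibition of growth.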 Calls of active or inactive are those of the source. Rule as the data show it: active = GI50 up to about 1.1 µM and inactive = higher.
Assays:
Assay in all cases: DTP human tumour cell line panel, 48 h
A498 = tested on: A498
A549 = tested on: A549
CCRF-CEM = tested on: CCRF-CEM
HCC 2998 = tested on: HCC 2998
HOP-92 = tested on: HOP-92
HT-29 = tested on: HT-29
Hs-578T = tested on: Hs-578T
IGROV-1 = tested on: IGROV-1
NCI-H226 = tested on: NCI-H226
NCI-H23 = tested on: NCI-H23
OVCAR-3 = tested on: OVCAR-3
OVCAR-8 = tested on: OVCAR-8
SK-MEL-28 = tested on: SK-MEL-28
SK-OV-3 = tested on: SK-OV-3
SN12C = tested on: SN12C
SNB-19 = tested on: SNB-19
SNB-75 = tested on: SNB-75
SW-620 = tested on: SW-620
UACC-257 = tested on: UACC-257
UACC-62 = tested on: UACC-62

Measured: GI50

Oc1cc(-c2ccccc2)nc2cc3c(cc12)OCO3
inactive: A498 15.1 µM | A549 14 µM | CCRF-CEM 12.2 µM | HCC 2998 15.6 µM | HOP-92 3.98 µM | HT-29 7.18 µM | Hs-578T 24.5 µM | IGROV-1 13.6 µM | NCI-H226 11.8 µM | NCI-H23 8.55 µM | OVCAR-3 10 µM | OVCAR-8 14.5 µM | SK-MEL-28 6.75 µM | SK-OV-3 6.92 µM | SN12C 12.8 µM | SNB-19 20 µM | SNB-75 2.6 µM | SW-620 6.15 µM | UACC-257 44.5 µM | UACC-62 5.52 µM

CC(C)CCn1nc(N)c2nc3ccccc3nc21
inactive: A498 > 100 µM | A549 > 100 µM | CCRF-CEM 46.2 µM | HCC 2998 > 100 µM | HOP-92 > 100 µM | HT-29 64.7 µM | Hs-578T > 100 µM | IGROV-1 > 100 µM | NCI-H226 61.8 µM | NCI-H23 > 100 µM | OVCAR-3 > 100 µM | OVCAR-8 > 100 µM | SK-MEL-28 > 100 µM | SK-OV-3 > 100 µM | SN12C > 100 µM | SNB-19 > 100 µM | SNB-75 > 100 µM | SW-620 67.6 µM | UACC-257 > 100 µM | UACC-62 > 100 µM

O=[N+]([O-])/C(Cl)=C(/C(Cl)=C(Cl)Cl)N1CCOCC1
inactive: A498 3.04 µM | A549 5.73 µM | CCRF-CEM 1.8 µM | HCC 2998 3.09 µM | HOP-92 2.51 µM | HT-29 3.4 µM | Hs-578T 3.8 µM | IGROV-1 1.92 µM | NCI-H226 16.4 µM | NCI-H23 2.24 µM | OVCAR-3 2.13 µM | OVCAR-8 2.56 µM | SK-MEL-28 11 µM | SK-OV-3 13.8 µM | SN12C 7.43 µM | SNB-19 17.6 µM | SNB-75 4.03 µM | SW-620 2.69 µM | UACC-257 2.99 µM | UACC-62 1.92 µM

CN(C)Cc1cc(O)c(O)c(CN(C)C)c1
inactive: A498 > 100 µM | A549 46.6 µM | CCRF-CEM 20.2 µM | HCC 2998 29 µM | HOP-92 > 100 µM | HT-29 40.2 µM | Hs-578T > 100 µM | IGROV-1 46.3 µM | NCI-H226 43.3 µM | NCI-H23 37 µM | OVCAR-3 36.7 µM | OVCAR-8 35.2 µM | SK-MEL-28 51.9 µM | SK-OV-3 54.1 µM | SN12C 36.9 µM | SNB-19 50.9 µM | SNB-75 56.6 µM | SW-620 64.3 µM | UACC-257 17.3 µM | UACC-62 29.5 µM

COC(=O)[C@@H]1[C@H]2CC[C@]3(C)[C@@H](OC(C)=O)CC[C@H]3[C@@H]2CC[C@H]1C(C)=O
inactive: A498 > 100 µM | A549 > 100 µM | CCRF-CEM > 100 µM | HCC 2998 > 100 µM | HOP-92 > 100 µM | HT-29 > 100 µM | Hs-578T > 100 µM | IGROV-1 > 100 µM | NCI-H226 > 100 µM | NCI-H23 > 100 µM | OVCAR-3 > 100 µM | OVCAR-8 > 100 µM | SK-MEL-28 > 100 µM | SK-OV-3 > 100 µM | SN12C > 100 µM | SNB-19 > 100 µM | SNB-75 > 100 µM | SW-620 > 100 µM | UACC-257 > 100 µM | UACC-62 > 100 µM

COC(=O)c1cc(C)ccc1CC(Cc1ccc(C)cc1)C(=O)OC (stereo not given)
inactive: A498 72.6 µM | A549 12.9 µM | CCRF-CEM 62.8 µM | HCC 2998 25.8 µM | HOP-92 8.95 µM | HT-29 5.58 µM | Hs-578T 21.2 µM | IGROV-1 72.4 µM | NCI-H226 > 47.4 µM | NCI-H23 9.4 µM | OVCAR-3 > 100 µM | OVCAR-8 > 66.8 µM | SK-MEL-28 67.1 µM | SK-OV-3 26.6 µM | SN12C > 65.5 µM | SNB-19 > 100 µM | SNB-75 6.78 µM | SW-620 23.5 µM | UACC-257 9.89 µM | UACC-62 > 100 µM

CCOC(=O)C(C)c1nc2cc(F)c(N3CCOCC3)cc2[nH]c1=O (stereo not given)
inactive: A498 > 100 µM | A549 > 100 µM | CCRF-CEM > 100 µM | HCC 2998 > 100 µM | HOP-92 > 100 µM | HT-29 > 100 µM | Hs-578T > 100 µM | IGROV-1 > 100 µM | NCI-H226 > 100 µM | NCI-H23 > 100 µM | OVCAR-3 > 100 µM | OVCAR-8 > 100 µM | SK-MEL-28 > 100 µM | SK-OV-3 > 100 µM | SN12C > 100 µM | SNB-19 > 100 µM | SNB-75 > 100 µM | SW-620 > 100 µM | UACC-257 > 100 µM | UACC-62 > 100 µM

Brc1c(C#CCC(c2ccccc2)(c2ccccc2)c2ccccc2)ccc(C#CCC(c2ccccc2)(c2ccccc2)c2ccccc2)c1Br
inactive: A498 > 100 µM | A549 > 100 µM | CCRF-CEM > 100 µM | HCC 2998 > 100 µM | HOP-92 > 100 µM | HT-29 > 100 µM | Hs-578T > 100 µM | IGROV-1 > 100 µM | NCI-H226 > 100 µM | NCI-H23 > 100 µM | OVCAR-3 > 100 µM | OVCAR-8 > 100 µM | SK-MEL-28 > 100 µM | SK-OV-3 > 100 µM | SN12C > 100 µM | SNB-19 > 100 µM | SNB-75 > 100 µM | SW-620 > 100 µM | UACC-257 > 100 µM | UACC-62 > 100 µM

O=c1[nH]c(=O)n(C2OC(CO)C(O)C2O)cc1Oc1ccccc1 (stereo not given)
inactive: A498 > 100 µM | A549 > 100 µM | CCRF-CEM > 100 µM | HCC 2998 > 100 µM | HOP-92 > 100 µM | HT-29 > 100 µM | Hs-578T 98.9 µM | IGROV-1 > 100 µM | NCI-H226 > 100 µM | NCI-H23 > 100 µM | OVCAR-3 > 100 µM | OVCAR-8 > 100 µM | SK-MEL-28 > 100 µM | SK-OV-3 > 100 µM | SN12C > 100 µM | SNB-19 > 100 µM | SNB-75 > 100 µM | SW-620 > 100 µM | UACC-257 > 100 µM | UACC-62 > 100 µM

O=c1[nH][nH]c(=O)c2c1ccc1oc3ccccc3c12
inactive: A498 > 100 µM | A549 > 100 µM | CCRF-CEM > 100 µM | HCC 2998 99.3 µM | HOP-92 > 100 µM | HT-29 > 100 µM | Hs-578T > 100 µM | IGROV-1 > 100 µM | NCI-H226 > 100 µM | NCI-H23 > 100 µM | OVCAR-3 > 100 µM | OVCAR-8 > 100 µM | SK-MEL-28 > 100 µM | SK-OV-3 > 100 µM | SN12C > 100 µM | SNB-19 > 100 µM | SNB-75 > 100 µM | SW-620 > 100 µM | UACC-257 > 100 µM | UACC-62 > 100 µM
